Laboratory results: patent publication US10829501B2 (BRISTOL-MYERS SQUIBB COMPANY, priority 2016, dated 2020)
Where a name gives a salt, the structure may show the parent alone.
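Note: rho kinase reaction read by separating phosphorylated from unphosphorylated peptide on chip, with inhibition of kinase activity computed per concentration across a dose-response series.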

What follows are molecules tested against ROCK2 (Homo sapiens, UniProt O75116) (assay: ROCK2 kinase inhibition assay (LABCHIP 3000 Reader, FITC peptide substrate)). Settings: not given.
Chain of ROCK2 (O75116 whole entry, species assumed): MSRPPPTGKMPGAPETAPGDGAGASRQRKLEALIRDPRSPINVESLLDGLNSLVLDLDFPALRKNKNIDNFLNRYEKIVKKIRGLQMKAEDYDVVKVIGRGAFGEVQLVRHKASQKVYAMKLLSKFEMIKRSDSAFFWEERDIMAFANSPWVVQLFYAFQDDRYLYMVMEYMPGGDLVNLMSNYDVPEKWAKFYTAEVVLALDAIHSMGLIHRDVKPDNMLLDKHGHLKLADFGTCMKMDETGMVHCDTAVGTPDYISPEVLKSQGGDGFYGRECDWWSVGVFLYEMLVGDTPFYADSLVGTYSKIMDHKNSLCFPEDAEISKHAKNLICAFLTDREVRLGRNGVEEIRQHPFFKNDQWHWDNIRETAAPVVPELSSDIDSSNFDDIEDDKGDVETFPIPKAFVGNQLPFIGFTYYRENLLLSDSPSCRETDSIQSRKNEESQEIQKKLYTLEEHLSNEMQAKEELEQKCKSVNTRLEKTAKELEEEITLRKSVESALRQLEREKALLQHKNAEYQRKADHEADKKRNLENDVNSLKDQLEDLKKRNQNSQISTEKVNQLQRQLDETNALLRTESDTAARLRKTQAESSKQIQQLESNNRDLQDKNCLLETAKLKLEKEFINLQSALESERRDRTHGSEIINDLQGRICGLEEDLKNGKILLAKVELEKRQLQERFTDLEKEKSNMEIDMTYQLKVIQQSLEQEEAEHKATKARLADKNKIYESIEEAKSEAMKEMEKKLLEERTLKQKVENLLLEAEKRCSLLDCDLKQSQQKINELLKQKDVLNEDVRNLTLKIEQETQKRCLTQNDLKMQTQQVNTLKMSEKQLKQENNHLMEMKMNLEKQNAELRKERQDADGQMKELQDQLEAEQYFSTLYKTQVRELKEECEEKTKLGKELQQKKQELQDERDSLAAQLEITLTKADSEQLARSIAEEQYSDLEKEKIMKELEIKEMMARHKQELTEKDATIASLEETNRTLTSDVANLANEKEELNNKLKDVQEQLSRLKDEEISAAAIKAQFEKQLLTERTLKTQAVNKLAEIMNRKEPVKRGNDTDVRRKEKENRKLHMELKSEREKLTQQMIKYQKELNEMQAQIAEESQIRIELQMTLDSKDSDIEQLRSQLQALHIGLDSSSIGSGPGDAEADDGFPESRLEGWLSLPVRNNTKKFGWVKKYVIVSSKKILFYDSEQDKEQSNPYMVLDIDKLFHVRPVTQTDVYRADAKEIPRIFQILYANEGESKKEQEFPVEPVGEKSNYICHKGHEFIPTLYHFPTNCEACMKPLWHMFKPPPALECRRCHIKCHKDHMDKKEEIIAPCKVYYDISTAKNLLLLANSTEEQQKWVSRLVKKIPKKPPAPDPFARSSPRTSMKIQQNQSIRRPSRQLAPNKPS
For NC(=O)c1cccnc1O[C@H]1CC2(C[C@H](NC(=O)c3cnn4c(C5CC5)c(OCC5CCCO5)ccc34)C2)C1 (stereo partly drawn) [Example 342, N-((aR)-6-((3-carbamoylpyridin-2-yl)oxy)spiro[3.3]heptan-2-yl)-7-cyclopropyl-6-((tetrahydrofuran-2-yl)methoxy)pyrazolo[1,5-a]pyridine-3-carboxamide], the IC50 was < 5 nM.
[H][C@]1(Oc2ncccc2C(N)=O)C[C@@]2(C[C@H](NC(=O)c3nnn4cc(N5CCOCC5)ccc34)C2)C1 (stereo partly drawn) [Example 369, N-((aR)-6-((3-carbamoylpyridin-2-yl)oxy)spiro[3.3]heptan-2-yl)-6-morpholino-[1,2,3]triazolo[1,5-a]pyridine-3-carboxamide] gave an IC50 of 250 to 2500 nM.
COc1ccc(-c2nc(C(=O)N[C@H]3CC4(C3)C[C@H](Oc3ncccc3C(N)=O)C4)cs2)cc1 (stereo partly drawn) [Example 136, N-((aR)-6-((3-carbamoylpyridin-2-yl)oxy)spiro[3.3]heptan-2-yl)-2-(4-methoxyphenyl) thiazole-4-carboxamide, trifluoroacetate] showed an IC50 of 250 to 2500 nM.
[H][C@]1(Oc2ncccc2C(N)=O)C[C@@]2(C[C@H](NC(=O)c3cnn(-c4ccc(Br)cc4)c3C)C2)C1 (stereo partly drawn) [Example 377] was tested, and the IC50 was 5 to 50 nM.
With NC(=O)c1cccnc1O[C@H]1CC2(C[C@H](NC(=O)c3cnn4cc(OCC(O)(C(F)(F)F)C(F)(F)F)ccc34)C2)C1 (stereo partly drawn) [Example 315, N-((aR)-6-((3-carbamoylpyridin-2-yl)oxy)spiro[3.3]heptan-2-yl)-6-(3,3,3-trifluoro-2-hydroxy-2-(trifluoromethyl)propoxy)pyrazolo[1,5-a]pyridine-3-carboxamide] the IC50 was 5 to 50 nM.
For CC(C)(O)COc1ccc2c(C(=O)NC3CC4(C3)CC(Oc3cc(CC5CCNC5)ccc3C(N)=O)C4)cnn2c1 (stereo not drawn) [Example 304, N-(6-(2-carbamoyl-5-(pyrrolidin-3-ylmethyl)phenoxy)spiro[3.3]heptan-2-yl)-6-(2-hydroxy-2-methylpropoxy)pyrazolo[1,5-a]pyridine-3-carboxamide], the IC50 was 5 to 50 nM.
In the case of CC(C)(O)COc1ccc2c(C(=O)NC3CC4(C3)CC(Oc3cc(Cl)ccc3C(N)=O)C4)cnn2c1 (stereo not drawn) [Example 220, N-(6-(2-carbamoyl-5-chlorophenoxy)spiro[3.3]heptan-2-yl)-6-(2-hydroxy-2-methylpropoxy)pyrazolo[1,5-a]pyridine-3-carboxamide], the IC50 is reported as 5 to 50 nM.
Work on CC(C)(O)COc1ccc2c(C(=O)NC3CC4(C3)CC(Oc3cc(-c5cccc(C(=O)N6CCOCC6)c5)ccc3C(N)=O)C4)cnn2c1 (stereo not drawn) [Example 294, N-(6-((4-carbamoyl-3′-(morpholine-4-carbonyl)-[1,1′-biphenyl]-3-yl)oxy)spiro[3.3]heptan-2-yl)-6-(2-hydroxy-2-methylpropoxy)pyrazolo[1,5-a]pyridine-3-carboxamide] yielded an IC50 of 5 to 50 nM.
In the case of NC(=O)c1cccnc1O[C@H]1CC2(C[C@H](NC(=O)c3cc(C(F)(F)F)cc4[nH]c(=O)[nH]c34)C2)C1 (stereo partly drawn) [Example 104, N-((aR)-6-((3-carbamoylpyridin-2-yl)oxy)spiro[3.3]heptan-2-yl)-2-oxo-6-(trifluoromethyl)-2,3-dihydro-1H-benzo[d]imidazole-4-carboxamide, trifluoroacetate], the IC50 is reported as < 5 nM.
Molecule COC(=O)c1cncc(-c2ccc(C(N)=O)c(OC3CC4(CC(NC(=O)c5cnn6cc(OCC(C)(C)O)ccc56)C4)C3)c2)c1 (stereo not drawn) [Example 232, methyl 5-(4-carbamoyl-3-((6-(6-(2-hydroxy-2-methylpropoxy)pyrazolo[1,5-a]pyridine-3-carboxamido)spiro[3.3]heptan-2-yl)oxy)phenyl)nicotinate] has an IC50 of 5 to 50 nM.
Molecule NC(=O)c1cccnc1O[C@H]1CC2(C[C@H](NC(=O)c3cnn4c(C5CC5)c(OCC5CCO5)ccc34)C2)C1 (stereo partly drawn) [Example 344, N-((aR)-6-((3-carbamoylpyridin-2-yl)oxy)spiro[3.3]heptan-2-yl)-7-cyclopropyl-6-(oxetan-2-ylmethoxy)pyrazolo[1,5-a]pyridine-3-carboxamide] has an IC50 of 5 to 50 nM.
For [H][C@]1(Oc2ncccc2C(N)=O)C[C@@]2(C[C@H](NC(=O)c3cc(-c4cnn(C)c4)cc(S(C)(=O)=O)c3)C2)C1 (stereo partly drawn) [Example 52], the IC50 was 5 to 50 nM.
In the case of N#Cc1ccn2c(C(=O)N[C@H]3CC4(C3)C[C@H](Oc3ncccc3C(N)=O)C4)cnc2c1 (stereo partly drawn) [Example 353, N-((aR)-6-((3-carbamoylpyridin-2-yl)oxy)spiro[3.3]heptan-2-yl)-7-cyanoimidazo[1,2-a]pyridine-3-carboxamide], the IC50 is reported as 50 to 250 nM.
In the case of NC(=O)c1ccccc1O[C@H]1CC2(C[C@H](NC(=O)c3cnn4c(C5CC5)c(OCCO)ccc34)C2)C1 (stereo partly drawn) [Example 31, N-[(aR)-6-(2-carbamoylphenoxy)spiro [3.3]heptan-2-yl]-7-cyclopropyl-6-(2-hydroxyethoxy)pyrazolo[1,5-a]pyridine-3-carboxamide], the IC50 is reported as 5 to 50 nM.
Cn1nc(C(=O)NC2CC3(C2)CC(Oc2ccccc2C(N)=O)C3)c2ccccc21 (stereo not drawn) [Example 2, N-(6-(2-carbamoylphenoxy)spiro[3.3]heptan-2-yl)-1-methyl-1H-indazole-3-carboxamide] gave an IC50 of 50 to 250 nM.
For [2H]C([2H])([2H])n1nc(C(=O)N[C@H]2CC3(C2)C[C@H](Oc2ncccc2C(N)=O)C3)c2ccc(F)cc21 (stereo partly drawn) [Example 174, 6-fluoro-1-(^2H3)methyl-N-[(aR)-6-[(3-carbamoylpyridin-2-yl)oxy]spiro[3.3]heptan-2-yl]-1H-indazole-3-carboxamide, trifluoroacetate], the IC50 was 5 to 50 nM.
With COC(=O)N1CC(Oc2ccc3c(C(=O)N[C@H]4CC5(C4)C[C@H](Oc4ncccc4C(N)=O)C5)cnn3c2)C1 (stereo partly drawn) [Example 347, methyl 3-((3-(((aR)-6-((3-carbamoylpyridin-2-yl)oxy)spiro[3.3]heptan-2-yl)carbamoyl)pyrazolo[1,5-a]pyridin-6-yl)oxy)azetidine-1-carboxylate] the IC50 was 5 to 50 nM.
Work on NC(=O)c1cccnc1O[C@H]1CC2(C[C@H](NC(=O)c3nc(-c4ccccn4)cs3)C2)C1 (stereo partly drawn) [Example 145, N-((aR)-6-((3-carbamoylpyridin-2-yl)oxy)spiro[3.3]heptan-2-yl)-4-(pyridin-2-yl) thiazole-2-carboxamide, trifluoroacetate] yielded an IC50 of 250 to 2500 nM.
CCCNC(=O)c1cc(F)cc(-c2ccc(C(N)=O)c(OC3CC4(CC(NC(=O)c5cnn6cc(OCC(C)(C)O)ccc56)C4)C3)c2)c1 (stereo not drawn) [Example 251, 5-fluoro-3′-((6-(6-(2-hydroxy-2-methylpropoxy)pyrazolo[1,5-a]pyridine-3-carboxamido)spiro[3.3]heptan-2-yl)oxy)-N3-propyl-[1,1′-biphenyl]-3,4′-dicarboxamide] showed an IC50 of 5 to 50 nM.
NC(=O)c1cccnc1O[C@H]1CC2(C[C@H](NC(=O)c3ccc4c(c3)S(=O)(=O)NC4=O)C2)C1 (stereo partly drawn) [Example 149, N-((aR)-6-((3-carbamoylpyridin-2-yl)oxy)spiro[3.3]heptan-2-yl)-3-oxo-2,3-dihydrobenzo[d] isothiazole-6-carboxamide 1,1-dioxide, trifluoroacetate] showed an IC50 of 50 to 250 nM.
With COc1cccc(-c2ccc3c(C(=O)N[C@H]4CC5(C4)C[C@H](Oc4ncccc4C(N)=O)C5)nn(C(F)F)c3c2)c1 (stereo partly drawn) [Example 177, N-((aR)-6-((3-carbamoylpyridin-2-yl)oxy)spiro[3.3]heptan-2-yl)-1-(difluoromethyl)-6-(3-methoxyphenyl)-1H-indazole-3-carboxamide, trifluoroacetate] the IC50 was 5 to 50 nM.
Molecule NC(=O)c1ccccc1O[C@H]1CC2(C[C@H](NC(=O)c3cnn4cc(OC(F)F)ccc34)C2)C1 (stereo partly drawn) [Example 24, N-[(aR)-6-(2-carbamoylphenoxy)spiro[3.3]heptan-2-yl]-6-(difluoromethoxy)pyrazolo [1,5-a]pyridine-3-carboxamide] has an IC50 of 5 to 50 nM.
Cc1nc(-c2cccnc2)sc1C(=O)N[C@H]1CC2(C1)C[C@H](Oc1ncccc1C(N)=O)C2 (stereo partly drawn) [Example 135, N-((aR)-6-((3-carbamoylpyridin-2-yl)oxy)spiro [3.3]heptan-2-yl)-4-methyl-2-(pyridin-3-yl)thiazole-5-carboxamide, bis-trifluoroacetate] gave an IC50 of 250 to 2500 nM.
Molecule N#Cc1cc(C(=O)N[C@H]2CC3(C2)C[C@H](Oc2ncccc2C(N)=O)C3)cc(-c2ccc(C#N)nc2)c1 (stereo partly drawn) [Example 191, 2-(((aR)-6-(3-cyano-5-(6-cyanopyridin-3-yl)benzamido)spiro[3.3]heptan-2-yl)oxy)nicotinamide, trifluoroacetate] has an IC50 of 5 to 50 nM.

Same assay, conditions: read-out: ROCK2 Activity (ROCK2 IC50); 5 μM ATP, 1.5 μM peptide substrate, pH 7.5
With “2-(((aR)-6-(3-(2- methylthiazol-4- yl)benzamido)spiro [3.3]heptan-2- yl)oxy)nicotinamide, trifluoroacetate [Example 133]” the IC50 was 5 to 50 nM.
Cc1nc(C(=O)NC2CC3(C2)CC(Oc2ncccc2C(N)=O)C3)c2ccc(Br)cn12 [Example 457, 6-bromo-N-((aR)-6-((3-carbamoylpyridin-2-yl)oxy)spiro[3.3]heptan-2-yl)-3-methylimidazo[1,5-a]pyridine-1-carboxamide] gave an IC50 of 50 to 250 nM.
In the case of NC(=O)c1cccnc1OC1CC2(CC(NC(=O)c3cc(C(F)(F)F)cc4c3NC(=O)OC4)C2)C1 [Example 426, N-((aR)-6-((3-carbamoylpyridin-2-yl)oxy)spiro[3.3]heptan-2-yl)-2-oxo-6-(trifluoromethyl)-1,4-dihydro-2H-benzo[d][1,3]oxazine-8-carboxamide], the IC50 is reported as 5 to 50 nM.
For CC(C)(C(N)=O)n1nc(C(=O)NC2CC3(C2)CC(Oc2ncccc2C(N)=O)C3)c2ccc(F)cc21 [Example 402, 1-(1-amino-2-methyl-1-oxopropan-2-yl)-N-((aR)-6-((3-carbamoylpyridin-2-yl)oxy)spiro[3.3]heptan-2-yl)-6-fluoro-1H-indazole-3-carboxamide, TFA], the IC50 was 5 to 50 nM.
For “N-((aR)- 6-((3- carbamoyl- pyridin-2- yl)oxy)spiro[3.3] heptan-2-yl)- 1-(2- hydroxy-2- methylpropyl)-1H- pyraolo[3,4-b] pyridine-3- carboxamide, trifluoroacetate [Example 94]”, the IC50 was 5 to 50 nM.
Cn1cc2c(C(=O)NC3CC4(C3)CC(Oc3ncccc3C(N)=O)C4)cc(Br)cc2n1 [Example 424, 6-bromo-N-((aR)-6-((3-carbamoylpyridin-2-yl)oxy)spiro[3.3]heptan-2-yl)-2-methyl-2H-indazole-4-carboxamide] gave an IC50 of 5 to 50 nM.
